Drawing on ChEMBL document CHEMBL1141203, “Transforming bivalent ligands into retractable enzyme inhibitors through polypeptide-protein interactions” (Bioorg Med Chem Lett, 2005), this text covers Ki for 2 compounds.

The target in the assay is Prothrombin (Homo sapiens, UniProt P00734). Description: Inhibitory activity against human thrombin by amidolytic assay using chromogenic S-2238 substrate. Format: functional.

The compound `CC[C@H](C)C[C@H](NC(=O)[C@H](CC(C)C)NC(=O)[C@H](CCCCN)NC(=O)[C@H](CCC(N)=O)NC(=O)[C@H](CCC(=O)O)NC(=O)CNC(=O)[C@H]1CCCCN1C(=O)[C@H](CCCN=C(N)N)NS(=O)(=O)c1ccc(C(C)(C)C)cc1)C(=O)N[C@@H](CO)C(=O)N[C@@H](CCC(=O)O)C(=O)N[C@@H](CCC(=O)O)C(=O)N[C@@H](CC(=O)O)C(=O)N[C@@H](CC(C)C)C(=O)NCC(=O)N[C@@H](CC(=O)O)C(=O)N[C@@H](Cc1ccccc1)C(=O)N[C@@H](CCC(=O)O)C(=O)N[C@@H](CCC(=O)O)C(=O)N[C@H](C(=O)N1CCC[C@H]1C(=O)N[C@@H](CCC(=O)O)C(=O)N[C@@H](CCC(=O)O)C(=O)N[C@@H](Cc1ccc(O)cc1)C(=O)N[C@@H](CC(C)C)C(=O)N[C@@H](CCC(N)=O)C(=O)O)[C@@H](C)CC` showed a Ki of 66 nM.

Turning to `CC[C@H](C)[C@H](NC(=O)[C@H](CCC(=O)O)NC(=O)[C@H](CCC(=O)O)NC(=O)[C@H](Cc1ccccc1)NC(=O)[C@H](CC(=O)O)NC(=O)CNC(=O)[C@H](CO)NC(=O)CNC(=O)[C@H](CO)NC(=O)CNC(=O)[C@H]1CCCCN1C(=O)[C@H](CCCN=C(N)N)NS(=O)(=O)c1ccc(C(C)(C)C)cc1)C(=O)N1CCC[C@H]1C(=O)N[C@@H](CCC(=O)O)C(=O)N[C@@H](CCC(=O)O)C(=O)N[C@@H](Cc1ccc(O)cc1)C(=O)N[C@@H](CC(C)C)C(=O)N[C@@H](CCC(N)=O)C(=O)O`, the Ki amounted to 36 nM.
